Results reported in patent publication US20040115249A1, “Ionic compounds of quaternary ammonium cations with anions of preservation acids, preparation thereof, and use thereof for preservation” (priority 2002, published 2004).

Test system: microorganisms from different sectors (molds, yeasts, bacteria)
Excerpt: The product obtained in example 2 was used in a test of antimicrobial activity.

n-alkyldimethylethylbenzylammonium Sorbate [Example 2]
minimum inhibitory concentrations: Very low
